# Assay results taken from patent publication US10174047B2, “Thienodiazepine derivatives or pharmaceutically acceptable salts thereof, and pharmaceutical composition including the same as an active ingredient” (Industry-University Cooperation Foundation Hanyang …, priority 2015, dated 2019).
# Test system: A375P cell line (melanoma)
# Experiment: Proliferation inhibition activity against A375P cell line (MTT assay)
# Assay type: cell-based
# Conditions: A375P melanoma cells, MTT assay; read-out: A375P (GI50)
# Experimental: Measurement of Proliferation Inhibition Activity Against A375P Cell Line (Melanoma)
# An A375P cell line purchased from ATCC was cultured in a DMEM medium [containing 10% FBS, 1% penicillin/streptomycin] at 37° C. in the presence of 5% CO2. The cultured A375P cell line was taken using 0.05% trypsin-0.02% EDTA, and seeded into a 96-well plate at a density of 5×10^3 cells per well.
# Cell viability was measured using an MTT [3-(4,5-dimethylthiazol-2-yl)-2,5-diphenyltetrazolium bromide] assay (CellTiter 96 Assay, Promega) as follows. 15 μl of dye was placed per well, the cells were cultured for 2 hours, and then treated with 100 μl of a stop solution, and after 24 hours, absorbance was measured. One day after plating, they were treated with compounds. For treatment with compounds, […] of stock was prepared, and serially diluted to one-third in dimethyl sulfoxide (DMSO) to prepare a 12-point test compound plate, and 0.5 μl was added (final concentration DMSO 0.5%).
# In the following Tables 1 to 3, in a case of GI50 being 10 to 30 μM, it was indicated as (+), in a case of it being 1 to 10 μM, it was indicated as (++), and in case of being less than 1 μM, it was indicated as (+++).
row,SMILES,GI50 [µM]
1,"O=C1CC(c2ccc(NC(=O)C(c3ccc(Cl)cc3)c3ccc(Cl)cc3)cc2)=Nc2cscc2N1 [Example 9, 2,2-bis(4-chlorophenyl)-N-(4-(2-oxo-2,3-dihydro-1H-thieno[3,4-b][1,4]diazepine-4-yl)phenyl)acetamide]",10 to 30
2,"O=C1CC(c2ccc(NC(=O)c3ccccc3-c3ccccc3)cc2)=Nc2cscc2N1 [Example 6, N-(4-(2-oxo-2,3-dihydro-1H-thieno[3,4-b][1,4]diazepine-4-yl)phenyl)biphenyl-2-carboxamide]",10 to 30
3,"O=C1CC(c2cccc(NC(=O)c3cnn(-c4ccccc4)c3C(F)(F)F)c2)=Nc2cscc2N1 [Example 24, N-(3-(2-oxo-2,3-dihydro-1H-thieno[3,4-b][1,4]diazepine-4-yl)phenyl)-1-phenyl-5-(trifluoromethyl)-1H-pyrazole-4-carboxamide]",10 to 30
4,"O=C1CC(c2ccc(NC(=O)c3cnn(-c4ccccc4)c3C(F)(F)F)cc2)=Nc2cscc2N1 [Example 7, N-(4-(2-oxo-2,3-dihydro-1H-thieno[3,4-b][1,4]diazepine-4-yl)phenyl)-1-phenyl-5-(trifluoromethyl)-1H-pyrazole-4-carboxamide]",1 to 10
5,"N#Cc1ccccc1Sc1ccccc1C(=O)Nc1ccc(C2=Nc3cscc3NC(=O)C2)cc1 [Example 15, 2-(2-cyanophenylthio)-N-(4-(2-oxo-2,3-dihydro-1H-thieno[3,4-b][1,4]diazepine-4-yl)phenyl)benzamide]",10 to 30
6,"CN1CCN(c2cc(C(=O)Nc3ccc(C4=Nc5cscc5NC(=O)C4)cc3)cc(C(F)(F)F)c2)CC1 [Example 12, 3-(4-methylpiperazine-1-yl)-N-(4-(2-oxo-2,3-dihydro-1H-thieno[3,4-b][1,4]diazepine-4-yl)phenyl)-5-(trifluoromethyl)benzamide]",10 to 30
7,"CC(=O)N1CCC(C(=O)Nc2cccc(C3=Nc4cscc4NC(=O)C3)c2)CC1 [Example 25, 1-acetyl-N-(3-(2-oxo-2,3-dihydro-1H-thieno[3,4-b][1,4]diazepine-4-yl)phenyl)piperidine-4-carboxamide]",10 to 30
8,"O=C1CC(c2ccc(NC(=O)c3cnccn3)cc2)=Nc2cscc2N1 [Example 11, N-(4-(2-oxo-2,3-dihydro-1H-thieno[3,4-b][1,4]diazepine-4-yl)phenyl)pyrazine-2-carboxamide]",10 to 30
9,"O=C1CC(c2ccc(NC(=O)c3cc(N4CCOCC4)cc(C(F)(F)F)c3)cc2)=Nc2cscc2N1 [Example 3, 3-morpholino-N-(4-(2-oxo-2,3-dihydro-1H-thieno[3,4-b][1,4]diazepine-4-yl)phenyl)-5-(trifluoromethyl)benzamide]",< 1
10,"O=C1CC(c2ccc(NC(=O)c3ccc(Cl)cc3)cc2)=Nc2cscc2N1 [Example 13, 4-chloro-N-(4-(2-oxo-2,3-dihydro-1H-thieno[3,4-b][1,4]diazepine-4-yl)phenyl)benzamide]",10 to 30
11,"O=C1CC(c2cccc(NC(=O)c3ccc(Cl)c(C(F)(F)F)c3)c2)=Nc2cscc2N1 [Example 18, 4-chloro-N-(3-(2-oxo-2,3-dihydro-1H-thieno[3,4-b][1,4]diazepine-4-yl)phenyl)-3-(trifluoromethyl)benzamide]",1 to 10
12,"CC(=O)N1CCC(C(=O)Nc2ccc(C3=Nc4cscc4NC(=O)C3)cc2)CC1 [Example 8, 1-acetyl-N-(4-(2-oxo-2,3-dihydro-1H-thieno[3,4-b][1,4]diazepine-4-yl)phenyl)piperidine-4-carboxamide]",10 to 30

# The remaining lines, values ahead:
row,GI50 [µM],SMILES
1,10 to 30,"O=C1CC(c2cccc(NC(=O)c3cnccn3)c2)=Nc2cscc2N1 [Example 28, N-(3-(2-oxo-2,3-dihydro-1H-thieno[3,4-b][1,4]diazepine-4-yl)phenyl)pyrazine-2-carboxamide]"
2,< 1,"O=C1CC(c2ccc(NC(=O)Nc3cc(Cl)cc(Cl)c3)cc2)=Nc2cscc2N1 [Example 44, 1-(3,5-dichlorophenyl)-3-(4-(2-oxo-2,3-dihydro-1H-thieno[3,4-b][1,4]diazepine-4-yl)phenyl)urea]"
3,10 to 30,"O=C(Cc1c[nH]c2ccccc12)Nc1cccc(C2=Nc3cscc3NC(=O)C2)c1 [Example 31, 2-(1H-indol-3-yl)-N-(3-(2-oxo-2,3-dihydro-1H-thieno[3,4-b][1,4]diazepine-4-yl)phenyl)acetamide]"
4,1 to 10,"O=C1CC(c2ccc(NC(=O)Nc3ccc(Cl)cc3)cc2)=Nc2cscc2N1 [Example 40, 1-(4-chlorophenyl)-3-(4-(2-oxo-2,3-dihydro-1H-thieno[3,4-b][1,4]diazepine-4-yl)phenyl)urea]"
5,10 to 30,"CN1CCN(c2cc(C(=O)Nc3cccc(C4=Nc5cscc5NC(=O)C4)c3)cc(C(F)(F)F)c2)CC1 [Example 29, 3-(4-methylpiperazine-1-yl)-N-(3-(2-oxo-2,3-dihydro-1H-thieno[3,4-b][1,4]diazepine-4-yl)phenyl)-5-(trifluoromethyl)benzamide]"
6,1 to 10,"O=C1CC(c2cccc(NC(=O)Nc3ccc(Cl)c(Cl)c3)c2)=Nc2cscc2N1 [Example 50, 1-(3,4-dichlorophenyl)-3-(3-(2-oxo-2,3-dihydro-1H-thieno[3,4-b][1,4]diazepine-4-yl)phenyl)urea]"
7,10 to 30,"O=C1CC(c2cccc(NC(=O)c3ccc4ccccc4n3)c2)=Nc2cscc2N1 [Example 36, N-(3-(2-oxo-2,3-dihydro-1H-thieno[3,4-b][1,4]diazepine-4-yl)phenyl)quinoline-2-carboxamide]"
8,10 to 30,"O=C1CC(c2ccc(NC(=O)Nc3cccc(Cl)c3)cc2)=Nc2cscc2N1 [Example 41, 1-(3-chlorophenyl)-3-(4-(2-oxo-2,3-dihydro-1H-thieno[3,4-b][1,4]diazepine-4-yl)phenyl)urea]"
9,10 to 30,"O=C(Cc1ccccc1F)Nc1cccc(C2=Nc3cscc3NC(=O)C2)c1 [Example 35, 2-(2-fluorophenyl)-N-(3-(2-oxo-2,3-dihydro-1H-thieno[3,4-b][1,4]diazepine-4-yl)phenyl)acetamide]"
10,1 to 10,"O=C1CC(c2ccc(NC(=O)Nc3ccc(Cl)c(Cl)c3)cc2)=Nc2cscc2N1 [Example 42, 1-(3,4-dichlorophenyl)-3-(4-(2-oxo-2,3-dihydro-1H-thieno[3,4-b][1,4]diazepine-4-yl)phenyl)urea]"
11,10 to 30,"O=C1CC(c2cccc(NC(=O)C(c3ccc(Cl)cc3)c3ccc(Cl)cc3)c2)=Nc2cscc2N1 [Example 26, 2,2-bis(4-chlorophenyl)-N-(3-(2-oxo-2,3-dihydro-1H-thieno[3,4-b][1,4]diazepine-4-yl)phenyl)acetamide]"
12,1 to 10,"O=C1CC(c2cccc(NC(=O)Nc3ccc(Cl)c(C(F)(F)F)c3)c2)=Nc2cscc2N1 [Example 46, 1-(4-chloro-3-(trifluoromethyl)phenyl)-3-(3-(2-oxo-2,3-dihydro-1H-thieno[3,4-b][1,4]diazepine-4-yl)phenyl)urea]"
13,10 to 30,"O=C(Cc1ccc(-c2ccccc2)cc1)Nc1cccc(C2=Nc3cscc3NC(=O)C2)c1 [Example 33, 2-(biphenyl-4-yl)-N-(3-(2-oxo-2,3-dihydro-1H-thieno[3,4-b][1,4]diazepine-4-yl)phenyl)acetamide]"

# Same assay, conditions: A375P melanoma cells, MTT assay; read-out: GI50 value against A375P
row,GI50 [µM],SMILES
1,2.74,"CNC(=O)c1cc(Oc2ccc(NC(=O)Nc3ccc(Cl)c(C(F)(F)F)c3)cc2)ccn1 [Sorafenib, reference compound]"

# Same assay, conditions: A375P melanoma cells, statement in words
row,SMILES,effects against A375P
1,"O=C1CC(c2ccc(NC(=O)Nc3cc(Cl)cc(Cl)c3)cc2)=Nc2cscc2N1 [Example 44, 1-(3,5-dichlorophenyl)-3-(4-(2-oxo-2,3-dihydro-1H-thieno[3,4-b][1,4]diazepine-4-yl)phenyl)urea]",significant effects
2,"O=C1CC(c2ccc(NC(=O)c3cc(N4CCOCC4)cc(C(F)(F)F)c3)cc2)=Nc2cscc2N1 [Example 3, 3-morpholino-N-(4-(2-oxo-2,3-dihydro-1H-thieno[3,4-b][1,4]diazepine-4-yl)phenyl)-5-(trifluoromethyl)benzamide]",significant effects
